Biological target: Arf-GAP with GTPase, ANK repeat and PH domain-containing protein 2 (Homo sapiens) (UniProt Q99490)
Assay: ligand binding to human centaurin gamma 1 – biophysical, DSF, SYPRO orange, recombinant protein (AID 511)
Settings: recombinant CENTG1, DSF SYPRO orange Tm shift; at 50000 µM; protein 4.5 µM; buffer 100 mM HEPES; pH 7.5; NaCl 150 mM; stronger effect = higher value

Sequence of Arf-GAP with GTPase, ANK repeat and PH domain-containing protein 2 (Homo sapiens) (Q99490 whole entry, looked up, the tested form may be a part): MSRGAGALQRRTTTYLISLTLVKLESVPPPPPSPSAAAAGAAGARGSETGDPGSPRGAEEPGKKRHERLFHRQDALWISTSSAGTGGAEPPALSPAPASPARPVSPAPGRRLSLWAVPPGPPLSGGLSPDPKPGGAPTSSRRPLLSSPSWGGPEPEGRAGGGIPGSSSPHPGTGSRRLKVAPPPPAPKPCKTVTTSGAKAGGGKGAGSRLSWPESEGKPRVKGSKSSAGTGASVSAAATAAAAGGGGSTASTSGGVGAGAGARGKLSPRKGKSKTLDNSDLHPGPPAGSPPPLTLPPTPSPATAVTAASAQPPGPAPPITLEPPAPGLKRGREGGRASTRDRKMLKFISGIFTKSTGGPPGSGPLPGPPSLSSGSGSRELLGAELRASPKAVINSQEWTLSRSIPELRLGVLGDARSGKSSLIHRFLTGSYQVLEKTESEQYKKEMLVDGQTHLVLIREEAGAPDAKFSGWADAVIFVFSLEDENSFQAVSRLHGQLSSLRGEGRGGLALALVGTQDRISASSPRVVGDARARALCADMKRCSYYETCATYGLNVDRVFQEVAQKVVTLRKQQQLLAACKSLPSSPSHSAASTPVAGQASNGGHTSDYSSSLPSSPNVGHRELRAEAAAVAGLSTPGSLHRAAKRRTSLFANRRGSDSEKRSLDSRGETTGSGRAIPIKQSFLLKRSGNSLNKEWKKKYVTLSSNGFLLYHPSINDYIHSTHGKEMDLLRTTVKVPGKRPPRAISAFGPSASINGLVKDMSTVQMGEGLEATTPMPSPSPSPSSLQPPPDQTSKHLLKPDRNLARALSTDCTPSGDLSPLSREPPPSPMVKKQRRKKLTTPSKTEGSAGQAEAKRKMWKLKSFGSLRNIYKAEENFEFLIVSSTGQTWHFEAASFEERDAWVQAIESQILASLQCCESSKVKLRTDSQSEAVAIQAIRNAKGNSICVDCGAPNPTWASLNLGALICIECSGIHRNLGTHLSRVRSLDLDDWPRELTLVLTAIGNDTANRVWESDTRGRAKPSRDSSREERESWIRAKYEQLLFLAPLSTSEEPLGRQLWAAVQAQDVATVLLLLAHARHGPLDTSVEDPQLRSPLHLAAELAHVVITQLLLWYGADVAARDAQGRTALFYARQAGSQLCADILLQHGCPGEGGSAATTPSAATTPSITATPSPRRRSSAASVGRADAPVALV

Tm shift: 3.9 Celsius
Compound: NC(CS)C(=O)O (stereo unspecified)

From PubChem BioAssay AID511
